In paper PMC8495455, “Discovery of a transdermally deliverable pentapeptide for activating AdipoR1 to promote hair growth” (EMBO Molecular Medicine, 2021):

Columns and labels:
[1] = system: AMPK phosphorylation in DP cells; test: Western blot p-AMPK, DP cells; assay type: cell-based, human; conditions: P5 0 - 50 μM, APN 2.5 μg/ml
Description: Following the confirmation of the molecular interaction between AdipoR1 and P5, we evaluated the activation of the intracellular signaling pathway by P5. We investigated whether APN treatment on ORS and DP cells could activate AMPK or ERK signaling pathways, which are previously known to be downstream effectors of AdipoR1 (Mao et al, [2006]; Deepa & Dong, [2009]; Shibata et al, [2012]). […] Next, for determination of whether both P5 and APN mediates the phosphorylation of AMPK through AdipoR1 in ORS and DP cells, the cells were transfected with AdipoR1 siRNA (Appendix Fig S1). […] Collectively, P5 activates AMPK signaling pathway through AdipoR1 in ORS and DP cells in vitro.
Human ORS and DP cells or skin tissue were lysed (RIPA lysis buffer; #20‐188; Merck Millipore). The obtained protein was then separated by 8% SDS–PAGE and transferred to a polyvinylidene fluoride membrane (Amersham). The protein transferred membranes were incubated overnight with the specific antibodies. […] Antibody‐antigen complexes detected by enhanced chemiluminescent substrate (Thermo Fisher) were captured and quantified by Amersham imager 680 systems (GE Healthcare).

human scalp HFs = test: Ex vivo human HF organ culture, hair shaft elongation; assay type: cell-based; conditions: 6 days, vs vehicle
Protocol: We next investigated whether P5 can reproduce the effects of APN on hair growth promotion ex vivo (Won et al, [2012]) using ex vivo human HF organ culture model. […] The Ki‐67‐positive cell portion of the matrix area in the P5‐treated HFs was higher than that in the vehicle‐treated group (Fig 3E).
The microdissected full‐length scalp HFs in anagen VI were cut at the level of sebaceous duct and then ex vivo cultured for 6 days at 37°C in a 5% CO2 atmosphere in Williams E medium (#12551032, Gibco) supplemented with hydrocortisone (10 ng/ml), insulin (10 µg/ml), L‐glutamine (2 mM), and penicillin‐streptomycin solution (1×). To avoid any potential bias in the length measurement from pseudo‐catagen progression, the total length of pigmented hair shaft of each HF was measured every three days to calculate the net length of elongated hair shaft and photographed in culture day 6 using a stereomicroscope (Olympus).

Adipoq−/− mice = test: Mouse hair cycle modulation, histology and anagen induction score, Adipoq−/− mice; assay type: in vivo; conditions: Unpaired t-test
Description: (§1) We also evaluated P5 effect in Adipoq ^−/− mouse (Ma et al, [2002]). […] Skin pigmentation was prominent in P5‐treated Adipoq ^−/− mice at day 14 (Fig 4E). […] At day 35, unlike vehicle‐treated Adipoq ^−/− mice showing little pigmentation, P5‐treated Adipoq ^−/− mice manifested hairs with pigmentation (Fig 4E). […] The DP cells in P5‐treated Adipoq ^−/− mice expressed versican (Fig 4G).
(§2) Paraffin‐embedded mouse cutaneous back tissue was sectioned (4 μm thickness) and stained with hematoxylin and eosin. […] IF intensity was observed and recorded with a Nikon Eclipse Ni‐E fluorescence microscope (Nikon).
(§3) For the hair cycle modulation experiment, Adipoq ^−/− (stock #008195; JAX) (Ma et al, [2002]), Adipor1 ^−/− (Yamauchi et al, [2007]; Okada‐Iwabu et al, [2013]), or C57BL/6 (KOATECH) female mice was used (Müller‐Röver et al, [2001]). […] The mouse hair growth score (a value from 0 to 100 based on the skin pigmentation and hair shaft density) was monitored and documented at designated days with the experimenters being blind to the conditions, following a previous study (Chai et al, [2019]). […] On day 35, we obtained dorsal cutaneous tissue for histological analysis: anagen induction scores (calculated using an assigned arbitrary score; telogen = 1, anagen I–VI = 2–7) (Müller‐Röver et al, [2001]).

[2] = system: p-AMPK in HF cells of Adipoq−/− mice; test: IF p-AMPK in HF cells of Adipoq−/− mice after topical P5; assay type: in vivo; conditions: Adipoq−/− mouse, topical 0.1 mM P5
Description: as §1, §2, §3

Substance: GLYYF [P5, GST-fused (GST-P5) in pulldown assays]
- Phosphorylation of AMPK, DP cells [1]: concentration‐dependent phosphorylation of AMPK
- Hair shaft growth ex vivo (human scalp HFs): significantly promoted hair shaft growth ex vivo
- Anagen induction score vs vehicle (Adipoq−/− mice): significantly higher
- p-AMPK in ORS cells of telogen HFs [2]: upregulation
